In patent US10098830B2, “Oral care compositions” (BASF SE, priority 2014, dated 2018):
Like-named read-outs stand apart in the source and are kept apart here.

What was measured:
[1] = test system: multispecies saliva derived biofilm; assay: Substantivity: multispecies saliva derived biofilm growth after 24 hr on pre-treated hydroxyl apatite surfaces; type: cell-based, human saliva; conditions: for % decrease in biofilm as compared to growth control (negative indicates increased biofilm): saliva biofilm, 24 hr, pre-treated surface
Experimental: Method to evaluate the substantivity of polymers to hydroxyl apatite surfaces and the effects these polymers have on the growth of Streptococcus mutans and Saliva derived biofilms. For Multispecies Saliva Biofilms: Hydroxy apatite (HA) coated surfaces are pellicle treated with pooled human saliva 200 ul/per well of a 96 well clear plate for 30 minutes at 37° C. aerobically. […] The peg lids are transferred to a clear 96 well plate containing 200 ul of the designated treatments below in Jordan's with 5% sucrose. […] After 30 mins of treatment the two pegs are transferred to a 96 well plate containing 200 ul of water and it is rinsed for 10 min at 500 rpm. […] After incubation the peg lids are transferred to a rinse plate containing 200 ul of water for 5 minutes and then transferred to white 96 well plate containing 200 ul Bac-titer-Glo, this is shaken for 5 minutes and read for luminescence.

[2] = test system: S. mutans (ATCC #25175) biofilm; assay: Substantivity: Streptococcus mutans biofilm growth after 24 hr on pre-treated hydroxyapatite surfaces; type: cell-based; conditions: pre-treated surface
Experimental: Method to evaluate the substantivity of polymers to hydroxyl apatite surfaces and the effects these polymers have on the growth of Streptococcus mutans and Saliva derived biofilms. For S. mutans Biofilms: S. mutans (ATCC #25175) is inoculated into 10 mL BHI and incubated statically at 37° C. overnight. […] Hydroxy apatite coated peg lids are pellicle treated with sterile artificial saliva 200 ul/per well of a 96 well clear plate for 30 minutes at 37° C. aerobic. The peg lids are transferred to a clear 96 well plate containing 200 ul of the designated treatments below in Jordan's with 5% sucrose. […] After 30 mins of treatment the two pegs are transferred to a 96 well plate containing 200 ul of water and it is rinsed for 10 min at 500 rpm. […] After incubation the peg lids are transferred to a rinse plate containing 200 ul of water for 5 minutes and then transferred to white 96 well plate containing 200 ul Bac-titer-Glo, this is shaken for 5 minutes and read for luminescence. Results: Polymers are evaluated using the substantivity for biofilm prevention method indicated above for both S. mutans and multispecies saliva derived biofilms.

48 hour saliva biofilms = assay: Disruption of established 48 hour saliva biofilms; type: cell-based, pooled human saliva; conditions: for Disruption of 48 hour saliva biofilms after treatment for 5 minutes: Chelate control: 0.1% Trilon Ca
Experimental: Method to screen combinations of actives, example polymers and chelates to identify potential synergies for biofilm disruption.
Polystyrene Pegs are pellicle treated with fresh pooled human saliva for 30 minutes at 37° C. aerobically. Saliva is inoculated into BHI broth at a final concentration of 10% saliva. 200 ul of inoculated or uninoculated media is added to each well. The pegs are added to the growth media and incubated anaerobically 37° C.
At 24 hr. the pegs are removed and transferred to a fresh plate containing 200 ul of sterile BHI. And incubated anaerobically for another 24 hr at 37 C.
After 48 hr of growth time, pegs containing the biofilms are transferred to a 96 well rinse plate containing 200 ul of or BHI. Following a 5 minute rinse at room temperature, the pegs are transferred to a treatment plate containing combinations of actives, chelate and polymers. This is followed a 5 minute treatment (shaking at 500 rpm). The treated pegs are transferred to a white 96 well plate containing 200 ul Bac-titer-Glo reagent—this is incubated at room temperature for 5 minutes (shaking) and read on a plate reader for luminescence.
Polymers are evaluated using the Biofilm disruption model as described above.
Example polymers (xylitol-EDTA polymer and xylitol-arginine-succinic acid polymer) are combined with example actives (epsilon-polylysine and chlorhexidine) and a chelator (Ca EDTA).

S. mutans (ATCC #25175) = assay: Inhibition of bacterial acid production (Bromo Cresol Purple broth, OD 588 / OD 427); type: cell-based, Streptococcus mutans
Experimental: Method to observe the acid production of S. mutans in a medium containing a pH indicator and glucose. Observe how xylitol and the example polymers affect acid production. A culture of S. mutans (ATCC #25175) is grown statically overnight in 10 mL liquid broth (BHI) at 37° C. […] The no treatment control has 20 ul water added. To each experimental well 180 of the inoculated BCP broth is added. To the no inoculum control 20 ul water and 20 ul filter sterilized overnight culture broth are added. […] Both wavelengths are measured every hour for several hours but before evaporation became an issue. The plates are shaken for 10 seconds before reading.

porcine esterase = assay: Enzymatic degradation of xylitol polymer by esterase (pH change); type: in vitro ADME
Experimental: The method for determining enzymatic breakdown of polymer is determined by Sigma Quality Control Test Procedure: Enzymatic Assay of Esterase. This assay however, exchanges Ethyl Butyrate solution with solution of test polymer. pH change is monitored over time as an indicator of esterase activity and polymer degradation.
Degradation of example polymers is conducted using porcine esterase. Esterase activity decreases the pH of the solution. The pH is monitored at the start and end of the assay (90 minutes).

S. mutans 25175 biofilm = assay: Prevention of Streptococcus mutans biofilm development on hydroxy apatite pegs (Bac-titer-Glo); type: cell-based; conditions: 2% xylitol
Experimental: Prevention of Biofilm Development S. mutans Biofilms: S. mutans 25175 is inoculated into 10 mL BHI and incubated statically at 37° C. overnight. […] Hydroxy apatite coated peg lids are pellicle treated with sterile artificial saliva 200 ul/per well of a 96 well clear plate for 30 minutes at 37° C. aerobic. […] Test solutions are added to a desired final concentration and water is added to bring the final volume to 200 ul. […] Polymers are evaluated using the biofilm prevention method indicated above for both S. mutans and multispecies saliva derived biofilm.

[3] = test system: multispecies saliva biofilm; assay: Prevention of multispecies saliva biofilm development on hydroxy apatite pegs (Bac-titer-Glo); type: cell-based, pooled human saliva; conditions: 2% xylitol
Experimental: Prevention of Biofilm Development Multispecies Saliva Biofilms: Hydroxy apatite (HA) coated surfaces of a 96 peg lid (Biosurface Technologies, Boseman, Mont.) are pellicle treated with pooled human saliva 200 μl/per well of a 96 well clear plate for 30 minutes at 37° C. aerobically. Into each well of the growth plate, clear 96 well plate, 160 μl inoculated Brain Heart Infusion (BHI) broth is added. Test solutions are added to a desired final concentration and water is added to bring the final volume to 200 μl. The hydroxyl apatite coated pegs are added to. […] Polymers are evaluated using the biofilm prevention method indicated above for both S. mutans and multispecies saliva derived biofilm.

With `CCCCCCCCCCCCCCCC[n+]1ccccc1` [Cetylpyridinium chloride] the “% decrease in biofilm as compared to growth control (negative indicates increased biofilm)” value ([1]; % treatment 0.070%) was 98% and the “% decrease in biofilm as compared to growth control (negative indicates increased biofilm)” value ([2]; % treatment 0.070%) was 100%.
In the case of `[H]/N=C(\N/C(=N/[H])NCCCCCCNC(=N)NC(=N)Nc1ccc(Cl)cc1)Nc1ccc(Cl)cc1` [Chlorhexidine, chlorhexidine], the “Disruption of 48 hour saliva biofilms after treatment for 5 minutes: Active control” value (48 hour saliva biofilms; 0.06% Chlorhexidine) is reported as −10^.
For `O=C(O)CN(CCN(CC(=O)O)CC(=O)O)CC(=O)O` [EDTA, ethylenediaminetetraacetic acid], the “substantivity (retention of biofilm prevention activity after rinsing), in words” value ([1]; observations consistent for both S. mutans and saliva biofilms) was “also substantive”, the “% decrease in biofilm as compared to growth control (negative indicates increased biofilm)” value ([1]; % treatment 0.083%) was 17% and the “% decrease in biofilm as compared to growth control (negative indicates increased biofilm)” value ([1]; % treatment 0.165%) was 25%. For the same compound, the “% decrease in biofilm as compared to growth control (negative indicates increased biofilm)” value ([1]; % treatment 0.330%) was 32%, the “% decrease in biofilm as compared to growth control (negative indicates increased biofilm)” value ([1]; % treatment 0.660%) was 60% and the “% decrease in biofilm as compared to growth control (negative indicates increased biofilm)” value ([1]; % treatment 1.320%) was 79%. For the same compound, the “% decrease in biofilm as compared to growth control (negative indicates increased biofilm)” value ([2]; % treatment 0.083%) was 13%, the “% decrease in biofilm as compared to growth control (negative indicates increased biofilm)” value ([2]; % treatment 0.165%) was 37% and the “% decrease in biofilm as compared to growth control (negative indicates increased biofilm)” value ([2]; % treatment 0.330%) was 44%. For the same compound, the “% decrease in biofilm as compared to growth control (negative indicates increased biofilm)” value ([2]; % treatment 0.660%) was 46%, the “% decrease in biofilm as compared to growth control (negative indicates increased biofilm)” value ([2]; % treatment 1.320%) was 41% and the “effect on acid production of S. mutans (change of OD 588 / OD 427, pH), in words” value (S. mutans (ATCC #25175)) was “no or little change”.
`CCOC(C)=O` [Ethyl Acetate] was tested, and the “End pH” value (porcine esterase; 0.2% (positive control), porcine esterase, end of the assay (90 minutes)) was 5.00 and the “Start pH” value (porcine esterase; 0.2% (positive control), porcine esterase, start of assay) was 8.30.
In the case of `N=C(N)NCCC[C@H](N)C(=O)O` [L-Arginine], the “% decrease in biofilm as compared to growth control (negative indicates increased biofilm)” value ([1]; % treatment 0.070%) is reported as −28%, the “% decrease in biofilm as compared to growth control (negative indicates increased biofilm)” value ([1]; % treatment 0.140%) is reported as −20% and the “% decrease in biofilm as compared to growth control (negative indicates increased biofilm)” value ([1]; % treatment 0.280%) is reported as −24%. The “% decrease in biofilm as compared to growth control (negative indicates increased biofilm)” value ([1]; % treatment 0.560%) was −22%, the “% decrease in biofilm as compared to growth control (negative indicates increased biofilm)” value ([1]; % treatment 1.120%) was 49% and the “% decrease in biofilm as compared to growth control (negative indicates increased biofilm)” value ([2]; % treatment 0.070%) was −40%. For the same compound, the “% decrease in biofilm as compared to growth control (negative indicates increased biofilm)” value ([2]; % treatment 0.140%) was −18%, the “% decrease in biofilm as compared to growth control (negative indicates increased biofilm)” value ([2]; % treatment 0.280%) was −59% and the “% decrease in biofilm as compared to growth control (negative indicates increased biofilm)” value ([2]; % treatment 0.560%) was −53%. For the same compound, the “% decrease in biofilm as compared to growth control (negative indicates increased biofilm)” value ([2]; % treatment 1.120%) was −29% and the “effect on acid production of S. mutans (change of OD 588 / OD 427, pH), in words” value (S. mutans (ATCC #25175)) was “no acid inhibiting effects”.
For `O=C([O-])CN(CCN(CC(=O)[O-])CC(=O)[O-])CC(=O)[O-].[Ca+2].[Na+].[Na+]` [Trilon Ca], the “Disruption of 48 hour saliva biofilms after treatment for 5 minutes: Chelate control” value (48 hour saliva biofilms; Chlorhexidine / Xylitol-EDTA polymer series) was −1 and the “Disruption of 48 hour saliva biofilms after treatment for 5 minutes: Chelate control” value (48 hour saliva biofilms; e-polylysine / Arginine-Xylitol-Succinic Acid Terpolymer series) was −10.
For `OC[C@@H](O)[C@H](O)[C@@H](O)CO` [Xylitol], the “percent reduction from the untreated control” value (S. mutans 25175 biofilm) was −1%, the “effect on acid production of S. mutans (change of OD 588 / OD 427, pH), in words” value (S. mutans (ATCC #25175)) was “acid inhibition at all concentrations tested” and the “percent reduction from the untreated control” value [3] was 17%.
With `O=C(O)CC(O)(CC(=O)O)C(=O)O` [citric acid] the “effect on acid production of S. mutans (change of OD 588 / OD 427, pH), in words” value (S. mutans (ATCC #25175)) was “no or little change”.
In the case of `O=C(O)CCC(=O)O` [succinic acid], the “effect on acid production of S. mutans (change of OD 588 / OD 427, pH), in words” value (S. mutans (ATCC #25175)) is reported as “no or little change”.
Xylitol-Carboxymethyl Cellulose Polymer was tested, and the “End pH” value (porcine esterase) was 7.47, the “Start pH” value (porcine esterase) was 8.37 and the “degradation by esterase, in words” value (porcine esterase) was “degraded by the esterase”.
